Patent US12331022B2, “Spiropiperidine allosteric modulators of nicotinic acetylcholine receptors” (Merck Sharp & Dohme LLC, priority 2019, dated 2025)
Like-named read-outs stand apart in the source and are kept apart here.

Target: T1, human α7 nAChR (Homo sapiens, UniProt P36544)
T1 construct: host or cells: HEK
Experiment: Automated patch-clamp electrophysiology functional assay (Assay A)
Assay type: cell-based
Conditions: HEK cell line stably expressing human RIC-3 and human α7, IonFlux HT whole-cell population patch, with or without 40 μM acetylcholine
Method: The α7 nAChR positive allosteric modulator (PAM) activity of the present compounds may be tested using assays known in the art. The α7 nAChR PAMs described herein have activities in an automated patch-clamp electrophysiology functional assay as described in the examples. The assay was performed using the IonFlux HT in a whole-cell, population patch configuration. See Golden et al. Assay Drug Dev. Technol. (2011) 9:608-619. The compounds were assessed for their ability to modulate the function of the human α7 nAChR stably expressed in a HEK cell line both in the presence, and in the absence of the natural α7 agonist acetylcholine. By performing a series of such measurements at different concentrations, the effective concentration of the α7 nAChR PAMs (EC50) was determined. See Spencer et al. Assay Drug Dev. Technol. (2012) 10:313-324.
Direct activation of α7 (agonism), and potentiation of acetylcholine-evoked α7 currents was determined as follows:
Automated patch-clamp electrophysiology was performed using the IonFlux HT (Fluxion Biosciences Inc., San Francisco, CA) in the whole-cell, population patch configuration. Test compounds were assessed for their ability to modulate the function of the α7 nicotinic acetylcholine receptor both in the presence, and in the absence of the natural α7 agonist acetylcholine. A HEK cell line stably expressing both human RIC-3 and human α7 (PrecisION hnAChR α7/RIC-3, Eurofins Pharma, St. Charles, MO) was cultured in 175 cm^2 triple-layer tissue culture flasks to no more than 90% confluency in DMEM/F-12 growth media supplemented with 10% heat-inactivated fetal bovine serum, 1% non-essential amino acids, 0.625 μg/mL Puromycin, and 400 μg/mL Geneticin. Immediately prior to assay, cells were detached by first aspirating growth media, rinsing with Dulbecco's phosphate buffered saline, and then adding 10 mL of Accutase (Innovative Cell Technologies, San Diego, CA) to the flask and then incubating at 37° C. for 5 minutes. Detached cells were then recovered by the addition of 40 mL of CHO-serum-free media supplemented with 25 mM HEPES, and rocked gently in a 50 mL conical tube for 20 minutes prior to patch-clamp assay. After recovery, cells were pelleted by centrifugation at 1,000 RPM for 1 minute in a compact bench top centrifuge; recovery media was aspirated and cells were resuspended in external recording solution (150 mM NaCl, 5 mM KCl, 2 mM CaCl2, 1 mM MgCl2, 10 mM HEPES, 12 mM dextrose) to a density of 5.0×10^6 cells/mL. The cell suspension was added to the cell inlet wells on an IonFlux HT population patch plate which had previously been rinsed and primed with deionized H2O. Test compounds were serially diluted in DMSO and then resuspended to the final test concentration in external recording solution, with, or without 40 μM acetylcholine added to the external recording solution; test compounds were then transferred to the IonFlux HT population patch plate. Internal recording solution (110 mM TrisPO4, 28 mM TrisBase, 0.1 mM CaCl2, 2 mM MgCl2, 11 mM EGTA, 4 mM MgATP) was added to the internal recording solution inlet wells on the IonFlux HT patch plate previously loaded with cells and test compounds, and the plate loaded into the IonFlux HT instrument. A protocol was executed on the IonFlux HT to trap the cells, break into the cells, and establish the whole-cell recording configuration; cells were voltage-clamped at a holding potential of −60 mV for the duration of the experiment, all experiments were conducted at room temperature, and the IonFlux HT injection pressure was 8 psi for solution applications. Upon establishing the whole-cell configuration, external recording solution was perfused into the recording chambers for 120 seconds and then 40 μM acetylcholine was applied for 1 second and immediately washed off with external recording solution for 60 seconds. […]

T1 sequence (P36544 23-502): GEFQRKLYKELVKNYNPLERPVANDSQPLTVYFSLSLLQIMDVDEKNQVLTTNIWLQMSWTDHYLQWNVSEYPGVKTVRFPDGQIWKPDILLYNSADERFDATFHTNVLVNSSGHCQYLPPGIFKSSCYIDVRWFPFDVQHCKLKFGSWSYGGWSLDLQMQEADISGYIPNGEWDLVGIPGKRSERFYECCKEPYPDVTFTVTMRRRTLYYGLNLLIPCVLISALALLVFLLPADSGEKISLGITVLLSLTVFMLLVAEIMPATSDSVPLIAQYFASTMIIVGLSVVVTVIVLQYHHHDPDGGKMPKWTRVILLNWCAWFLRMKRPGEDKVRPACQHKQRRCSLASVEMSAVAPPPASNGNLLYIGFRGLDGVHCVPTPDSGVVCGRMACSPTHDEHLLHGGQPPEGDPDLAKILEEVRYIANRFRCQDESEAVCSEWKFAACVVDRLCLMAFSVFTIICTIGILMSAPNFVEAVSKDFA

Row | SMILES | EC50 (read-out: α7 nAChR EC50) | EC50 (read-out: α7 nAChR Potency)
1 | NS(=O)(=O)N1CCC2(CC1)C(CSc1nnnn1-c1ccccc1)C2(F)F (single isomer, unassigned) [Example A62, 1,1-difluoro-2-{[(1-phenyl-1H-tetrazol-5-yl)sulfanyl]methyl}-6-azaspiro[2.5]octane-6-sulfonamide] | 2000 nM | 500 to 5000 nM
2 | Cc1cc(C)n(-c2cccc(OC[C@@H]3CC34CCN(S(N)(=O)=O)CC4)n2)n1 [Example A19, (1R)-1-({[6-(3,5-dimethyl-1H-pyrazol-1-yl)pyridin-2-yl]oxy}methyl)-6-azaspiro[2.5]octane-6-sulfonamide] | 190 nM | 100 to 500 nM
3 | NS(=O)(=O)N1CCC2(CC1)C[C@@H]2COc1cccc(OCC(F)(F)F)n1 [Example A38, (1S)-1-({[6-(2,2,2-trifluoroethoxy)pyridin-2-yl]oxy}methyl)-6-azaspiro[2.5]octane-6-sulfonamide] | 720 nM | 500 to 5000 nM
4 | Cc1cccc(OC[C@@H]2CC23CCN(S(N)(=O)=O)CC3)n1 [Example A48, (1R)-1-{[(6-methylpyridin-2-yl)oxy]methyl}-6-azaspiro[2.5]octane-6-sulfonamide] | 1700 nM | 500 to 5000 nM
5 | NS(=O)(=O)N1CCC2(CC1)C(COc1ccnc(OC(F)F)c1)C2(F)F (single isomer, unassigned) [Example 3, 2-({[2-(Difluoromethoxy)pyridin-4-yl]oxy}methyl)-1,1-difluoro-6-azaspiro[2.5]octane-6-sulfonamide] | 930 nM | 500 to 5000 nM
6 | N#Cc1cccc(OC[C@@H]2CC23CCN(S(N)(=O)=O)CC3)n1 [Example A47, (1R)-1-{[(6-cyanopyridin-2-yl)oxy]methyl}-6-azaspiro[2.5]octane-6-sulfonamide] | 1100 nM | 500 to 5000 nM
7 | COc1cc(OC[C@@H]2CC23CCN(S(N)(=O)=O)CC3)ccc1F [Example A4, (1R)-1-[(4-fluoro-3-methoxyphenoxy)methyl]-6-azaspiro[2.5]octane-6-sulfonamide] | – | 500 to 5000 nM
8 | NS(=O)(=O)N1CCC2(CC1)CC2COc1cccc(OCC(F)(F)F)c1 (stereo not shown) [Example 7, 1-{[3-(2,2,2-Trifuoroethoxy)phenoxy]methyl}-6-azaspiro[2.5]octane-6-sulfonamide] | 330 nM | 100 to 500 nM
9 | COc1ccc(OC[C@@H]2CC23CCN(S(N)(=O)=O)CC3)c(OC)n1 [Example A1, (1R)-1-{[(2,6-dimethoxypyridin-3-yl)oxy]methyl}-6-azaspiro[2.5]octane-6-sulfonamide] | 6200 nM | 5000 to 50000 nM
10 | NS(=O)(=O)N1CCC2(CC1)C[C@H]2COc1cccc(C2CC2)n1 [Example A49] | 280 nM | 100 to 500 nM
11 | NS(=O)(=O)N1CCC2(CC1)C(COc1cccc(OCC(F)(F)F)n1)C2(F)F (single isomer, unassigned) [Example A41, 1,1-difluoro-2-({[6-(2,2,2-trifluoroethoxy)pyridin-2-yl]oxy}methyl)-6-azaspiro[2.5]octane-6-sulfonamide] | – | 100 to 500 nM
12 | NS(=O)(=O)N1CCC2(CC1)CC2COc1ccnc(OCC(F)(F)F)c1 (racemic) [Example A32, 1-({[2-(2,2,2-trifluoroethoxy)pyridin-4-yl]oxy}methyl)-6-azaspiro[2.5]octane-6-sulfonamide] | 140 nM | 100 to 500 nM
13 | NS(=O)(=O)N1CCC2(CC1)C[C@H]2COc1cccc(OCC2CC2)n1 [Example A17, (1R)-1-({[6-(cyclopropylmethoxy)pyridin-2-yl]oxy}methyl)-6-azaspiro[2.5]octane-6-sulfonamide] | 130 nM | 100 to 500 nM
14 | NS(=O)(=O)N1CCC2(CC1)C[C@@H]2COc1cccc(OC(F)(F)F)c1 [Example A25, (1S)-1-{[3-(trifluoromethoxy)phenoxy]methyl}-6-azaspiro[2.5]octane-6-sulfonamide] | 1900 nM | 500 to 5000 nM
15 | NS(=O)(=O)N1CCC2(CC1)C(COc1cccnc1OCC(F)(F)F)C2(F)F (single isomer, unassigned) [Example A35, 1,1-difluoro-2-({[2-(2,2,2-trifluoroethoxy)pyridin-3-yl]oxy}methyl)-6-azaspiro[2.5]octane-6-sulfonamide] | 540 nM | 500 to 5000 nM
16 | COc1ccc(Cl)cc1OCC1C(F)(F)C12CCN(S(N)(=O)=O)CC2 (single isomer, unassigned) [Example A3, 2-[(5-chloro-2-methoxyphenoxy)methyl]-1,1-difluoro-6-azaspiro[2.5]octane-6-sulfonamide] | 1300 nM | 500 to 5000 nM
17 | NS(=O)(=O)N1CCC2(CC1)C[C@H]2COc1cccc(NCC(F)(F)F)n1 [Example 10, (1R)-1-[({6-[(2,2,2-Trifluoroethyl)amino]pyridin-2-yl}oxy)methyl]-6-azaspiro[2.5]octane-6-sulfonamide] | 74 nM | ≤ 100 nM
18 | COc1ccc(Cl)cc1NC(=O)[C@@H]1C(F)(F)C12CCN(S(N)(=O)=O)CC2 [Example 15, (1R)—N-(5-Chloro-2-methoxyphenyl)-2,2-difluoro-6-sulfamoyl-6-azaspiro[2.5]octane-1-carboxamide] | 63 nM | ≤ 100 nM
19 | NS(=O)(=O)N1CCC2(CC1)C(COc1noc(-c3ccccc3)n1)C2(F)F (single isomer, unassigned) [Example 6, 1,1-Difluoro-2-{[(5-phenyl-1,2,4-oxadiazol-3-yl)oxy]methyl}-6-azaspiro[2.5]octane-6-sulfonamide] | 49 nM | ≤ 100 nM
20 | COc1ccc(F)c(OCC2C(F)(F)C23CCN(S(N)(=O)=O)CC3)c1 (single isomer, unassigned) [Example A31, 1,1-difluoro-2-[(2-fluoro-5-methoxyphenoxy)methyl]-6-azaspiro[2.5]octane-6-sulfonamide] | – | ≤ 100 nM
21 | NS(=O)(=O)N1CCC2(CC1)C(CSc1ccc(C(F)(F)F)cc1)C2(F)F (single isomer, unassigned) [Example A44, 1,1-difluoro-2-({[4-(trifluoromethyl)phenyl]sulfanyl}methyl)-6-azaspiro[2.5]octane-6-sulfonamide] | 150 nM | 100 to 500 nM
22 | Cc1cc(OCC2CC23CCN(S(N)(=O)=O)CC3)n(-c2ccccc2)n1 (racemic) [Example A14, 1-{[(3-methyl-1-phenyl-1H-pyrazol-5-yl)oxy]methyl}-6-azaspiro[2.5]octane-6-sulfonamide] | 700 nM | 500 to 5000 nM
23 | COc1ccc(Cl)cc1SC[C@@H]1CC12CCN(S(N)(=O)=O)CC2 [Example 11, (1R)-1-{[(5-Chloro-2-methoxyphenyl)sulfanyl]methyl}-6-azaspiro[2.5]octane-6-sulfonamide] | 52 nM | ≤ 100 nM
24 | NS(=O)(=O)N1CCC2(CC1)CC2CSc1ccc(C(F)(F)F)cc1 (racemic) [Example A43, 1-({[4-(trifluoromethyl)phenyl]sulfanyl}methyl)-6-azaspiro[2.5]octane-6-sulfonamide] | 1400 nM | 500 to 5000 nM
25 | NS(=O)(=O)N1CCC2(CC1)C(COc1ccnc(OCC(F)(F)F)c1)C2(F)F (single isomer, unassigned) [Example A33, 1,1-difluoro-2-({[2-(2,2,2-trifluoroethoxy)pyridin-4-yl]oxy}methyl)-6-azaspiro[2.5]octane-6-sulfonamide] | 20 nM | ≤ 100 nM
26 | NS(=O)(=O)N1CCC2(CC1)C(COc1cc(F)ccc1C(F)(F)F)C2(F)F (single isomer, unassigned) [Example A8, 1,1-difluoro-2-{[5-fluoro-2-(trifluoromethyl)phenoxy]methyl}-6-azaspiro[2.5]octane-6-sulfonamide] | 89 nM | ≤ 100 nM
